Assay results from ChEMBL document CHEMBL1201862, “PubChem BioAssay data set” (2004).
Values joined by “and” are separate entries in the source; they are usually repeats but may differ in a detail not shown here. Equal entries are not always repeated.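 Five compound concentrations were applied to cells in 96-well plates for 48 hours; endpoints were derived by simple linear interpolation of the resulting dose-response curve. Here, GI50 denotes the concentration required for 50% inhibition of growth.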 Active and inactive are the calls of the source. No stated cut-off is given here; in the data, active = GI50 up to about 1.1 µM and inactive = higher.

What was measured:
Experiment in all cases: growth of human tumour cells (NCI), 48 h
CAKI-1 = tested on: CAKI-1
CCRF-CEM = tested on: CCRF-CEM
DMS-114 = tested on: DMS-114
DMS-273 = tested on: DMS-273
HCT-116 = tested on: HCT-116
HCT-15 = tested on: HCT-15
HL-60 = tested on: HL-60
HOP-92 = tested on: HOP-92
HT-29 = tested on: HT-29
LXFL 529 = tested on: LXFL 529
M14 = tested on: M14
M19-MEL = tested on: M19-MEL
MOLT-4 = tested on: MOLT-4
NCI-H23 = tested on: NCI-H23
NCI-H522 = tested on: NCI-H522
OVCAR-4 = tested on: OVCAR-4
OVCAR-8 = tested on: OVCAR-8
RPMI-8226 = tested on: RPMI-8226
RXF 393 = tested on: RXF 393
SF-539 = tested on: SF-539
SNB-75 = tested on: SNB-75
SNB-78 = tested on: SNB-78
SW-620 = tested on: SW-620
U-251 = tested on: U-251
786-0 = tested on: 786-0
A498 = tested on: A498
A549 = tested on: A549
ACHN = tested on: ACHN
BT-549 = tested on: BT-549
COLO 205 = tested on: COLO 205
DU-145 = tested on: DU-145
EKVX = tested on: EKVX
HCC 2998 = tested on: HCC 2998
HOP-62 = tested on: HOP-62
Hs-578T = tested on: Hs-578T
IGROV-1 = tested on: IGROV-1
K562 = tested on: K562
KM12 = tested on: KM12
LOX IMVI = tested on: LOX IMVI
MCF7 = tested on: MCF7
MDA-MB-231 = tested on: MDA-MB-231
MDA-MB-435 = tested on: MDA-MB-435
MDA-N = tested on: MDA-N
Malme-3M = tested on: Malme-3M
NCI-H226 = tested on: NCI-H226
NCI-H460 = tested on: NCI-H460
NCI/ADR-RES = tested on: NCI/ADR-RES
OVCAR-3 = tested on: OVCAR-3
OVCAR-5 = tested on: OVCAR-5
PC-3 = tested on: PC-3
SF-268 = tested on: SF-268
SF-295 = tested on: SF-295
SK-MEL-28 = tested on: SK-MEL-28
SK-MEL-2 = tested on: SK-MEL-2
SK-MEL-5 = tested on: SK-MEL-5
SK-OV-3 = tested on: SK-OV-3
SN12C = tested on: SN12C
SNB-19 = tested on: SNB-19
SR = tested on: SR
T47D = tested on: T47D
TK-10 = tested on: TK-10
UACC-257 = tested on: UACC-257
UACC-62 = tested on: UACC-62
UO-31 = tested on: UO-31
DLD-1 = tested on: DLD-1
KM-20L2 = tested on: KM-20L2

In the case of NCCSSC/C=C\CSSCCN, the GI50 (CAKI-1) is reported as 33.7 µM (inactive) and 38.8 µM (inactive), the GI50 (CCRF-CEM) is reported as 5.56 µM (inactive) and the GI50 (DMS-114) is reported as 30.8 µM (inactive) and 20 µM (inactive). The GI50 (DMS-273) was 41.1 µM (inactive) and 22 µM (inactive), the GI50 (HCT-116) was 40.3 µM (inactive) and 36.8 µM (inactive) and the GI50 (HCT-15) was 46.9 µM and 34.3 µM. For the same compound, the GI50 (HL-60) was 7.06 µM (inactive) and 14.1 µM (inactive), the GI50 (HOP-92) was 38 µM (inactive) and 41.6 µM (inactive) and the GI50 (HT-29) was 26.6 µM (inactive) and 34.6 µM (inactive). The GI50 (LXFL 529) was 23.9 µM (inactive) and 20.1 µM (inactive), the GI50 (M14) was 17.8 µM (inactive) and 31.5 µM (inactive) and the GI50 (M19-MEL) was 50.9 µM (inactive) and 29.4 µM (inactive). For the same compound, the GI50 (MOLT-4) was 18.6 µM (inactive) and 15.5 µM (inactive), the GI50 (NCI-H23) was 29.6 µM (inactive) and 40.7 µM (inactive) and the GI50 (NCI-H522) was 15.7 µM (inactive) and 15.5 µM (inactive). The GI50 (OVCAR-4) was 18.8 µM (inactive) and 26.7 µM (inactive), the GI50 (OVCAR-8) was 17.6 µM (inactive) and 27.2 µM (inactive) and the GI50 (RPMI-8226) was 26.2 µM (inactive) and 21.9 µM (inactive). The GI50 (RXF 393) was 54.1 µM (inactive) and 35.9 µM (inactive), the GI50 (SF-539) was 29.6 µM (inactive) and 18.1 µM (inactive) and the GI50 (SNB-75) was 34.8 µM (inactive) and > 53.3 µM (inactive). The GI50 (SNB-78) was 35.2 µM (inactive) and 28.4 µM (inactive), the GI50 (SW-620) was 16.2 µM (inactive) and 13.5 µM (inactive) and the GI50 (U-251) was 34.4 µM (inactive) and 20.6 µM (inactive).

OC(CCN1CCN(CCOC(c2ccc(F)cc2)c2ccc(F)cc2)CC1)c1ccc(Br)cc1 (centres undefined) was tested, and the GI50 (786-0) was 2.68 µM (inactive), the GI50 (A498) was 2.12 µM (inactive) and the GI50 (A549) was 9.44 µM (inactive). For the same compound, the GI50 (ACHN) was 4.76 µM (inactive), the GI50 (BT-549) was 5.83 µM (inactive) and the GI50 (CAKI-1) was 2.02 µM (inactive). The GI50 (CCRF-CEM) was 2.77 µM (inactive), the GI50 (COLO 205) was 1.85 µM (inactive) and the GI50 (DU-145) was 6.21 µM (inactive). The GI50 (EKVX) was 5.15 µM (inactive), the GI50 (HCC 2998) was 1.97 µM (inactive) and the GI50 (HCT-116) was 2.8 µM (inactive). For the same compound, the GI50 (HCT-15) was 2.74 µM, the GI50 (HL-60) was 2.77 µM (inactive) and the GI50 (HOP-62) was 6.12 µM (inactive). For the same compound, the GI50 (HOP-92) was 4.37 µM (inactive), the GI50 (HT-29) was 3.32 µM (inactive) and the GI50 (Hs-578T) was 4.89 µM (inactive). The GI50 (IGROV-1) was 4.57 µM (inactive), the GI50 (K562) was 2.45 µM (inactive) and the GI50 (KM12) was 2.44 µM (inactive). For the same compound, the GI50 (LOX IMVI) was 2.04 µM (inactive), the GI50 (M14) was 1.96 µM (inactive) and the GI50 (MCF7) was 3.37 µM (inactive). For the same compound, the GI50 (MDA-MB-231) was 5.74 µM (inactive), the GI50 (MDA-MB-435) was 2.27 µM (inactive) and the GI50 (MDA-N) was 2.61 µM (inactive). For the same compound, the GI50 (MOLT-4) was 2.4 µM (inactive), the GI50 (Malme-3M) was 2.12 µM (inactive) and the GI50 (NCI-H226) was 5.7 µM (inactive). The GI50 (NCI-H23) was 6.75 µM (inactive), the GI50 (NCI-H460) was 2.42 µM (inactive) and the GI50 (NCI-H522) was 5.74 µM (inactive). For the same compound, the GI50 (NCI/ADR-RES) was 2.21 µM (inactive), the GI50 (OVCAR-3) was 3.34 µM (inactive) and the GI50 (OVCAR-4) was 4.01 µM (inactive). The GI50 (OVCAR-5) was 15.5 µM (inactive), the GI50 (OVCAR-8) was 2.02 µM (inactive) and the GI50 (PC-3) was 4.83 µM (inactive). The GI50 (RPMI-8226) was 2.67 µM (inactive), the GI50 (RXF 393) was 3.94 µM (inactive) and the GI50 (SF-268) was 4.76 µM (inactive). The GI50 (SF-295) was 4.62 µM (inactive), the GI50 (SF-539) was 2.3 µM (inactive) and the GI50 (SK-MEL-28) was 2.69 µM (inactive). For the same compound, the GI50 (SK-MEL-2) was 5.36 µM (inactive), the GI50 (SK-MEL-5) was 1.69 µM (inactive) and the GI50 (SK-OV-3) was 7.35 µM (inactive). For the same compound, the GI50 (SN12C) was 2.68 µM (inactive), the GI50 (SNB-19) was 7.6 µM (inactive) and the GI50 (SNB-75) was 9.77 µM (inactive). For the same compound, the GI50 (SR) was 2.34 µM (inactive), the GI50 (SW-620) was 4.67 µM (inactive) and the GI50 (T47D) was 3.05 µM (inactive). For the same compound, the GI50 (TK-10) was 6.76 µM (inactive), the GI50 (U-251) was 4.11 µM (inactive) and the GI50 (UACC-257) was 1.96 µM (inactive). For the same compound, the GI50 (UACC-62) was 4.06 µM (inactive) and the GI50 (UO-31) was 2.22 µM (inactive).

For Cc1nc(-n2nc(-c3ccccc3)cc2-c2ccccc2)sc1C(/C=C/c1ccc([N+](=O)[O-])cc1)=N/NC(=O)c1ccncc1, the GI50 (786-0) was 13.5 µM (inactive), the GI50 (A498) was 49.3 µM (inactive) and the GI50 (A549) was 30.3 µM (inactive). The GI50 (ACHN) was 23.6 µM (inactive), the GI50 (CCRF-CEM) was 7.6 µM (inactive) and the GI50 (COLO 205) was 21.6 µM (inactive). For the same compound, the GI50 (DLD-1) was 11.6 µM (inactive), the GI50 (DMS-114) was 13.9 µM (inactive) and the GI50 (EKVX) was 36.8 µM (inactive). The GI50 (HCC 2998) was 5.82 µM (inactive), the GI50 (HCT-116) was 9.12 µM (inactive) and the GI50 (HCT-15) was 14.7 µM. For the same compound, the GI50 (HL-60) was 11 µM (inactive), the GI50 (HOP-62) was 12.8 µM (inactive) and the GI50 (HOP-92) was 11.5 µM (inactive). For the same compound, the GI50 (HT-29) was 14.4 µM (inactive), the GI50 (IGROV-1) was 21.1 µM (inactive) and the GI50 (K562) was 13.9 µM (inactive). The GI50 (KM-20L2) was 19.4 µM (inactive), the GI50 (KM12) was 4.06 µM (inactive) and the GI50 (LOX IMVI) was 14.2 µM (inactive). The GI50 (LXFL 529) was 12.7 µM (inactive), the GI50 (M14) was 20.2 µM (inactive) and the GI50 (M19-MEL) was 25.4 µM (inactive). The GI50 (MOLT-4) was 6.89 µM (inactive), the GI50 (Malme-3M) was 21.9 µM (inactive) and the GI50 (NCI-H226) was 17.9 µM (inactive). For the same compound, the GI50 (NCI-H23) was 14.8 µM (inactive), the GI50 (NCI-H460) was 40 µM (inactive) and the GI50 (OVCAR-3) was 12.6 µM (inactive). The GI50 (OVCAR-5) was 53.1 µM (inactive), the GI50 (OVCAR-8) was 28.9 µM (inactive) and the GI50 (RPMI-8226) was 7.16 µM (inactive). For the same compound, the GI50 (RXF 393) was 22.4 µM (inactive), the GI50 (SF-268) was 20 µM (inactive) and the GI50 (SF-295) was 29 µM (inactive). For the same compound, the GI50 (SF-539) was 13.1 µM (inactive), the GI50 (SK-MEL-28) was 31.1 µM (inactive) and the GI50 (SK-MEL-2) was 17.7 µM (inactive). The GI50 (SK-MEL-5) was 18.1 µM (inactive), the GI50 (SK-OV-3) was 44.8 µM (inactive) and the GI50 (SN12C) was 24.2 µM (inactive). For the same compound, the GI50 (SNB-19) was 14 µM (inactive), the GI50 (SNB-75) was 22.9 µM (inactive) and the GI50 (SNB-78) was 17.3 µM (inactive). The GI50 (SW-620) was 26.7 µM (inactive), the GI50 (TK-10) was 32.6 µM (inactive) and the GI50 (U-251) was 27.7 µM (inactive). The GI50 (UACC-257) was 41.7 µM (inactive), the GI50 (UACC-62) was 19.4 µM (inactive) and the GI50 (UO-31) was 11.7 µM (inactive).
